Drawing on patent publication US20130150376A1, “Novel Sultam Compounds” (PFIZER INC., priority 2010, published 2013), this text covers IC50 for 26 compounds.

For this assay, the target named is T1, BACE1 enzyme (soluble, truncated BACE enzyme, BACE1deltaTM96His) (Homo sapiens, UniProt P56817).
T1 construct: soluble, truncated BACE enzyme (BACE1deltaTM96His); His; made in house
In words: BACE1 Fluorescent Polarization (FP) Assay. It counts as biochemical. To be noted: geometric mean of 2-4 IC50 determinations unless footnoted (^2: 5-6 determinations; ^4: single determination). The essentials:
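Soluble truncated His-tagged BACE1 (BACE1deltaTM96His, from CHO-K1 conditioned media; 0.1 nM final) with biotinylated Oregon green peptide substrate (150 nM final), in 100 mM sodium acetate pH 4.5, 0.001% Tween-20. Compounds in ½ log series from 100 μM top; 3 h at 37° C. Stopped with streptavidin; cleavage read as Δ mP fluorescence polarization (Ex485/Em530).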

Where [1] appears, read: 11-point curve, read-out: BACE activity, 11-point curve, IC50.
Setting [2] is: 8-point curve, read-out: BACE activity, 8-point curve, IC50.

Counter-ions that a name gives are not always drawn. Like-named read-outs stand apart in the source and are kept apart here.

T1 sequence (P56817 46-457): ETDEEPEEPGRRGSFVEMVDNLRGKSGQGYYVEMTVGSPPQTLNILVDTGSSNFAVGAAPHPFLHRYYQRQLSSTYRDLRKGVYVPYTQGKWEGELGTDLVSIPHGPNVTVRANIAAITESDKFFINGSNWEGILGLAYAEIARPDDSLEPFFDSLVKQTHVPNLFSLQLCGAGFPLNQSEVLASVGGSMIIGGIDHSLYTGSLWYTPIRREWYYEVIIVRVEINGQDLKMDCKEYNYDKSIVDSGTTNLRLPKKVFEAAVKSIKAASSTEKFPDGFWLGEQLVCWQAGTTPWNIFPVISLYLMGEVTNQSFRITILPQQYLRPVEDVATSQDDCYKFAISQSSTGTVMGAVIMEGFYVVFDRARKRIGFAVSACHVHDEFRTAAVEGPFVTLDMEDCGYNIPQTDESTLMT

Regarding `CC(C)Cc1ncoc1CN1CC[C@]2(CC(C)S(=O)(=O)N2c2cccc(F)c2)C[C@@H]1C` (mixture of isomers) [Example 2, (5R,7S)-1-(3-Fluorophenyl)-8-[(4-isobutyl-1,3-oxazol-5-yl)methyl]-3,7-dimethyl-2-thia-1,8-diazaspiro[4.5]decane 2,2-dioxide, formate salt], the IC50 under setting [1] came to 4.44 µM. Take `C[C@H]1C[C@@]2(C=CS(=O)(=O)N2c2cccc(F)c2)CCN1Cc1ccc(O)c(OC(F)(F)F)c1` [Example 10, 4-{[(5R,7S)-1-(3-fluorophenyl)-7-methyl-2,2-dioxido-2-thia-1,8-diazaspiro[4.5]dec-3-en-8-yl]methyl}-2-(trifluoromethoxy)phenol, hydrochloride salt]: the IC50 under setting [2] stood at 0.181 µM.

Take `C[C@H]1C[C@]2(CCN1Cc1ccc(O)c(C3CCCO3)c1)CCS(=O)(=O)N2c1cccc(F)c1` (mixture of isomers) [Example 61, 4-{[(5R,7S)-1-(3-fluorophenyl)-7-methyl-2,2-dioxido-2-thia-1,8-diazaspiro[4.5]dec-8-yl]methyl}-2-(tetrahydrofuran-2-yl)phenol]: the IC50 under setting [2] was under 0.0305 µM. Take `Cc1cccnc1-c1cc(CN2CC[C@@]3(C[C@@H]2C)C(=O)CS(=O)(=O)N3c2cccc(F)c2)ccc1O` [Example 85, (5R,7S)-1-(3-fluorophenyl)-8-[4-hydroxy-3-(3-methylpyridin-2-yl)benzyl]-7-methyl-2-thia-1,8-diazaspiro[4.5]decan-4-one 2,2-dioxide]: the IC50 under setting [1] came to 0.715 µM. With `C[C@H]1C[C@@]2(C=CS(=O)(=O)N2c2cccc(F)c2)CCN1Cc1ccc(O)c(Cl)c1` [Example 15, 2-chloro-4-{[(5R,7S)-1-(3-fluorophenyl}-7-methyl-2,2-dioxido-2-thia-1,8-diazaspiro[4.5]dec-3-en-8-yl]methyl}phenol, hydrochloride salt], the IC50 is, setting by setting: under setting [2], 0.754 µM; under setting [1], 0.478 µM.

Take `C[C@H]1C[C@@]2(C=CS(=O)(=O)N2c2cccc(F)c2)CCN1Cc1scnc1-c1cncc(F)c1` [Example 44, (5R,7S)-1-(3-fluorophenyl)-8-{[4-(5-fluoropyridin-3-yl)-1,3-thiazol-5-yl]methyl}-7-methyl-2-thia-1,8-diazaspiro[4.5]dec-3-ene 2,2-dioxide, hydrochloride salt]: the IC50 runs as follows: under setting [2], 3.07 µM; under setting [1], 8.46 µM.

For `C[C@H]1C[C@@]2(C=CS(=O)(=O)N2c2cccc(F)c2)CCN1Cc1ncoc1C1CCCOC1` (stereo partly drawn) [Example 79, (5R,7S)-1-(3-fluorophenyl)-7-methyl-8-{[5-(tetrahydro-2H-pyran-3-yl)-1,3-oxazol-4-yl]methyl}-2-thia-1,8-diazaspiro[4.5]dec-3-ene 2,2-dioxide], the IC50 is, setting by setting: under setting [2], 0.189 µM; under setting [1], 0.519 µM. Turning to `CC(C)Oc1cc(CN2CC[C@]3(CCS(=O)(=O)N3c3cccc(F)c3)C[C@@H]2C)ncc1O` [Example 3, 6-{[(5R,7S)-1-(3-Fluorophenyl)-7-methyl-2,2-dioxido-2-thia-1,8-diazaspiro[4.5]dec-8-yl]methyl}-4-isopropoxypyridin-3-ol], the IC50 is, setting by setting: under setting [2], 0.0815 µM; under setting [1], 0.613 µM. In the same order, the values of `Cc1ccsc1-c1ocnc1CN1CC[C@]2(C=CS(=O)(=O)N2c2cccc(F)c2)C[C@@H]1C` [Example 37, (5R,7S)-1-(3-fluorophenyl)-7-methyl-8-{[5-(3-methyl-2-thienyl)-1,3-oxazol-4-yl]methyl}-2-thia-1,8-diazaspiro[4.5]dec-3-ene 2,2-dioxide] are 1.82 µM and 2.84 µM. `C[C@H]1C[C@@]2(C=CS(=O)(=O)N2c2cccc(F)c2)CCN1Cc1ccc(O)c(C2CCCO2)c1` (single isomer, unassigned) [Example 30]: the IC50 under setting [2] came out at 0.208 µM. With `CCOc1cc(CN2CC[C@]3(C=CS(=O)(=O)N3c3cccc(F)c3)C[C@@H]2C)ccc1O` [Example 27, 2-ethoxy-4-{[(5R,7S)-1-(3-fluorophenyl)-7-methyl-2,2-dioxido-2-thia-1,8-diazaspiro[4.5]dec-3-en-8-yl]methyl}phenol], the IC50 under setting [2] turned out to be 0.116 µM and the IC50 under setting [1] worked out at 0.269 µM. For the compound `C[C@H]1C[C@@]2(C=CS(=O)(=O)N2c2cccc(F)c2)CCN1Cc1ccc(O)c(OC2CC2)c1` [Example 14, 2-(cyclopropyloxy)-4-{[(5R,7S)-1-(3-fluorophenyl)-7-methyl-2,2-dioxido-2-thia-1,8-diazaspiro[4.5]dec-3-en-8-yl]methyl}phenol], under setting [2], the IC50 is 0.0425 µM. For `Cc1scnc1-c1cc(CN2CC[C@]3(CCS(=O)(=O)N3c3cnccn3)C[C@@H]2C)ccc1O` [Example 89, 4-{[(5R,7S)-7-methyl-2,2-dioxido-1-(pyrazin-2-yl)-2-thia-1,8-diazaspiro[4.5]dec-8-yl]methyl}-2-(5-methyl-1,3-thiazol-4-yl)phenol], the IC50 reads like this: under setting [2], 0.0649 µM; under setting [1], 1.23 µM. `C[C@H]1C[C@@]2(C=CS(=O)(=O)N2c2cccc(F)c2)CCN1Cc1scnc1CC1CCC1` [Example 19, (5R,7S)-8-{[4-(cyclobutylmethyl)-1,3-thiazol-5-yl]methyl}-1-(3-fluorophenyl)-7-methyl-2-thia-1,8-diazaspiro[4.5]dec-3-ene 2,2-dioxide]: the IC50 under setting [2] was 0.31 µM. For `Cc1ccccc1-c1cccc(CN2CC[C@]3(C=CS(=O)(=O)N3c3cccc(F)c3)C[C@@H]2C)c1` [Example 54, (5R,7S)-1-(3-fluorophenyl)-7-methyl-8-[(2′-methylbiphenyl-3-yl)methyl]-2-thia-1,8-diazaspiro[4.5]dec-3-ene 2,2-dioxide], the IC50 turned out to be 0.0533 µM under setting [2] and 0.137 µM under setting [1].

`C[C@H]1C[C@]2(CCN1Cc1ccc(O)c(C3CCC3)c1)C(=O)CS(=O)(=O)N2c1cccc(F)c1` [Example 84, (5R,7S)-8-(3-cyclobutyl-4-hydroxybenzyl)-1-(3-fluorophenyl)-7-methyl-2-thia-1,8-diazaspiro[4.5]decan-4-one 2,2-dioxide]: the IC50 under setting [1] was found to be 0.337 µM. Take `C[C@H]1C[C@@]2(C=CS(=O)(=O)N2c2cccc(F)c2)CCN1Cc1ccc(O)c(C(F)(F)F)c1` [Example 16, 4-{[(5R,7S)-1-(3-fluorophenyl)-7-methyl-2,2-dioxido-2-thia-1,8-diazaspiro[4.5]dec-3-en-8-yl]methyl}-2-(trifluoromethyl)phenol, hydrochloride salt]: the IC50 under setting [2] was 0.322 µM. As to `COC1=CS(=O)(=O)N(c2cccc(F)c2)[C@@]12CCN(Cc1ccc(O)c(-c3nscc3C)c1)[C@@H](C)C2` [Example 86, 4-{[(5R,7S)-1-(3-fluorophenyl)-4-methoxy-7-methyl-2,2-dioxido-2-thia-1,8-diazaspiro[4.5]dec-3-en-8-yl]methyl}-2-(4-methylisothiazol-3-yl)phenol, ammonium salt], the IC50 under setting [1] was 0.117 µM. `Cc1ccccc1-c1cc(CN2CC[C@]3(C=CS(=O)(=O)N3c3cccc(F)c3)C[C@@H]2C)ccc1O` [Example 25, 5-{[(5R,7S)-1-(3-fluorophenyl)-7-methyl-2,2-dioxido-2-thia-1,8-diazaspiro[4.5]dec-3-en-8-yl]methyl}-2′-methylbiphenyl-2-ol, hydrochloride salt]: the IC50 was found to be 0.0143 µM under setting [2] and 0.0284 µM under setting [1]. Taken in the same sequence, the figures for `CC(C)Oc1cccc(CN2CC[C@]3(CCS(=O)(=O)N3c3cccc(F)c3)C[C@@H]2C)c1` [Example 28, (5R,7S)-1-(3-fluorophenyl)-8-(3-isopropoxybenzyl)-7-methyl-2-thia-1,8-diazaspiro[4.5]decane 2,2-dioxide] were 0.521 µM and 2.16 µM. Consider `C[C@H]1C[C@@]2(C=CS(=O)(=O)N2c2cccc(F)c2)CCN1Cc1ccc(O)c(F)c1` [Example 18, 2-fluoro-4-{[(5R,7S)-1-(3-fluorophenyl)-7-methyl-2,2-dioxido-2-thia-1,8-diazaspiro[4.5]dec-3-en-8-yl]methyl}phenol, hydrochloride salt], for which the IC50 under setting [2] was 0.00186 µM. On to `C[C@H]1C[C@@]2(C=CS(=O)(=O)N2c2cccc(F)c2)CCN1Cc1scnc1CC1CC1` [Example 24, (5R,7S)-8-{[4-(cyclopropylmethyl)-1,3-thiazol-5-yl]methyl}-1-(3-fluorophenyl)-7-methyl-2-thia-1,8-diazaspiro[4.5]dec-3-ene 2,2-dioxide, hydrochloride salt], for which the IC50 under setting [2] was found to be 0.0519 µM and the IC50 under setting [1] came out at 0.353 µM.

Take `CC(C)Oc1cccc(CN2CC[C@@]3(C[C@@H]2C)C(O)CS(=O)(=O)N3c2cccc(F)c2)c1` (stereo partly drawn) [Example 65, (5R,7S)-1-(3-fluorophenyl)-8-(3-isopropoxybenzyl)-7-methyl-2-thia-1,8-diazaspiro[4.5]decan-4-ol 2,2-dioxide]: the IC50 under setting [1] was 3.16 µM.

Regarding `C[C@H]1C[C@@]2(C=CS(=O)(=O)N2c2cccc(F)c2)CCN1Cc1ccc(O)c(C2CCC2)c1` [Example 75, 2-cyclobutyl-4-{[(5R,7S)-1-(3-fluorophenyl)-7-methyl-2,2-dioxido-2-thia-1,8-diazaspiro[4.5]dec-3-en-8-yl]methyl}phenol], the IC50 under setting [1] was determined as 0.0418 µM. `CC(C)Oc1cccc(CN2CC[C@]3(C=CS(=O)(=O)N3c3cccc(F)c3)C[C@@H]2C)c1` [Example 17, (5R,7S)-1-(3-fluorophenyl)-8-(3-isopropoxybenzyl)-7-methyl-2-thia-1,8-diazaspiro[4.5]dec-3-ene 2,2-dioxide]: the IC50 stood at 0.0849 µM under setting [2] and 0.908 µM under setting [1]. Turning to `C[C@H]1C[C@]2(CCN1Cc1ncoc1-c1cncs1)CCS(=O)(=O)N2c1cccc(F)c1` [Example 60, (5R,7S)-1-(3-fluorophenyl)-7-methyl-8-{[5-(1,3-thiazol-5-yl)-1,3-oxazol-4-yl]methyl}-2-thia-1,8-diazaspiro[4.5]decane 2,2-dioxide, hydrochloride salt], the IC50 under setting [1] is 6.54 µM.
